Assay results: patent US7592419
Where two headings read alike, the source gives them in different places.

Conditions: rcm bond, CH2Cl2, 25.0 °C

Work on COC(=O)[C@@H]1CCCCC=CCCCC(C)(C)[C@H](NC(=O)OCc2ccccc2)C(=O)N2C[C@H]3[C@@H]([C@H]2C(=O)N1)C3(C)C yielded a ring closure, yield of all isomers (from C=CCCCC[C@H](NC(=O)[C@@H]1[C@@H]2[C@H](CN1C(=O)[C@@H](NC(=O)OCc1ccccc1)C(C)(C)CCCC=C)C2(C)C)C(=O)OC, Grubbs catalyst (Grubbs I), 101.1 mM, 24.0 h) of 44.5%.
Compound COC(=O)[C@@H]1CCCCC=CCCCC[C@H](NC(=O)OCc2ccccc2)C(=O)N2C[C@@H]3OC(C)(C)C[C@@H]3[C@H]2C(=O)N1 has a ring closure, yield of all isomers (from C=CCCCC[C@H](NC(=O)[C@@H]1[C@H]2CC(C)(C)O[C@H]2CN1C(=O)[C@H](CCCCC=C)NC(=O)OCc1ccccc1)C(=O)OC, Grubbs I [(Cy3P)2Cl2Ru=CHPh], 50.0 mM, 24.0 h) of 58.9%.
In the case of COC(=O)[C@@H]1CCCCC=CCCCC[C@H](NC(=O)OC(C)(C)C)C(=O)N2C[C@H]3[C@@H]([C@H]2C(=O)N1)C3(C)C, the ring closure, yield of all isomers (from C=CCCCC[C@H](NC(=O)[C@@H]1[C@@H]2[C@H](CN1C(=O)[C@H](CCCCC=C)NC(=O)OC(C)(C)C)C2(C)C)C(=O)OC, Grubbs I [(Cy3P)2Cl2Ru=CHPh], 100.0 mM, 24.0 h) is reported as 48.2%.
Compound COC(=O)CNC(=O)C(O)[C@@H]1CCCC=CCC[C@H](NC(=O)OCC(C)C)C(=O)N2CCC[C@H]2C(=O)N1 (stereo partly shown) has a ring closure, yield of all isomers (from C=CCCC[C@H](NC(=O)[C@@H]1CCCN1C(=O)[C@H](CCC=C)NC(=O)OCC(C)C)C(O)C(=O)NCC(=O)OC, Grubbs catalyst (Grubbs I), 3.0 mM, 65.0 h) of 20%.
